Assay results published in US6333428A, “6-fluorobicyclo[3.1.0]hexane derivatives” (Taisho Pharmaceutical Co., Ltd., priority 1998, dated 2001).
pIC50: −log10 of the molar value. Where two headings read alike, the source gives them in different places.

Target: T1, metabotropic glutamate receptors mG1uR2 (Rattus norvegicus, UniProt P31421)
T1 construct: expressed in transfected cells
Assay: Effect of Test Compounds on cAMP Accumulation (inhibition of Forskolin-stimulated cAMP accumulation in CHO cells stably expressing mGluR2)
Assay type: cell-based
Procedure: After the medium was replaced with an L-glutamine free medium, they were cultured for 4 hours, and the supernatant liquid was aspirated. After adding 150 μl of PBS(+)-IBMX (10 mM PBS(-), 1 mM MgC12,1 mM CaCl2, 1 mM IBMX), incubation was conducted at 37° C. under the presence of 5% CO2 for 20 minutes. Once again the supernatant liquid was suctioned off, 60 μl of 10^-5 M Forskolin and PBS (+)-IBMX containing the specimens listed in Table 1 between 10^-10 and 10^-4 M were added, incubation was carried out for 15 minutes at 37° C. under the presence of 5% CO2, and a study was carried out for the inhibitory effect of the agonists on the Forskolin stimulation cAMP accumulation quantity [for control, the conditions were set to Forskolin with no addition of the compounds (Tanabe et al., Neuron, 8, 169-179 (1992))]. The reactions were halted by adding 100 μl of ice-cooled ethanol, the entire quantity of the supernatant liquid was collected in a separate plate, then was dried up at normal temperature with an evaporator, and was kept at -20° C. In the dried-up samples, the quantity of cAMP was measured using a cAMP EIA kit (from the Amasham company). The control value was subtracted from each cAMP quantity.

[1] = CHO cells stably expressing mGluR2, 10^-5 M Forskolin, specimens 10^-10 to 10^-4 M, 15 minutes at 37° C., cAMP EIA kit, agonist

T1 sequence (P31421 19-872): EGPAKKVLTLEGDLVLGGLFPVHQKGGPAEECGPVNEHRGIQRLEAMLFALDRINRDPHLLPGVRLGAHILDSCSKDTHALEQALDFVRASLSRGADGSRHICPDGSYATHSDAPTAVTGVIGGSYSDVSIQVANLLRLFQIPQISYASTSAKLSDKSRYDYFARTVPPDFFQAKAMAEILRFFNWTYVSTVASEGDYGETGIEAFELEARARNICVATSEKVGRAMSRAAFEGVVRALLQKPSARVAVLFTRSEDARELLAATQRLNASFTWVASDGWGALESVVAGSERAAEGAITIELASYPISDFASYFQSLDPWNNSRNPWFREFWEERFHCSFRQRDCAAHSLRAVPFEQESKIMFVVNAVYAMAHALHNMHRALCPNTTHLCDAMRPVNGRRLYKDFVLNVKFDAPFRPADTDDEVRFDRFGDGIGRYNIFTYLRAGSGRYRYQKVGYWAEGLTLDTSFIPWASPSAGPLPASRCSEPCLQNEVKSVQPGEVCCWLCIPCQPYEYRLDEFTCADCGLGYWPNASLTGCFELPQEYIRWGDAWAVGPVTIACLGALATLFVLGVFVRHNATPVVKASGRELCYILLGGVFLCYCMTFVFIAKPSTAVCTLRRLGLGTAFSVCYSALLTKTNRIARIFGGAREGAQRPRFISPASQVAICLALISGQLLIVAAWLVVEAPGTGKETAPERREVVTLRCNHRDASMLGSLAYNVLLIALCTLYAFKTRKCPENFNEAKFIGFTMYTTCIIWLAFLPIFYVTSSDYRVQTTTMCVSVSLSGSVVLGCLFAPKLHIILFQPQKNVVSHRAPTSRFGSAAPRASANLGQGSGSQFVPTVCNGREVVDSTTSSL

pIC50 [1] | Compound | pIC50
7.01 | N[C@H](C(=O)O)C1[C@@H](C(=O)O)[C@@H]1C(=O)O (stereo partly drawn) [DCG IV, (2S, 1'R, 2'R, 3'R)-2-(2', 3'-dicarboxycycloproyl)glycine, reference compound] | 
7.78 | N[C@@]1(C(=O)O)CC[C@@H]2[C@H]1[C@@]2(F)C(=O)O (single isomer, unassigned) [Comp. 2, (-)-(1R*, 2S*, 5R*, 6R*)-2-amino-6-fluorobicyclo[3.1.0]hexane-2,6-dicarboxylic acid] | 
7.47 | N[C@@]1(C(=O)O)CC[C@@H]2[C@H]1[C@@]2(F)C(=O)O (racemic) [Comp. 1, (1RS, 2SR, 5RS, 6RS)-2-amino-6-fluorobicyclo[3.1.0]hexane-2,6-dicarboxylic acid] | 
 | N[C@@]1(C(=O)O)CC[C@@H](C(=O)O)C1 [(1s,3R)-ACPD, (1S, 3R)-1-aminocyclopentane-1,3-dicarboxylic acid, reference compound] | 5.82
7.71 | N[C@@]1(C(=O)O)C[C@H](O)[C@@H]2[C@H]1[C@@]2(F)C(=O)O (racemic) [Comp. 5, (1RS, 2SR, 4SR, 5SR, 6SR)-2-amino-6-fluoro-4-hydroxybicyclo [3.1.0]hexane-2,6-dicarboxylic acid] | 
8.90 | N[C@@]1(C(=O)O)CC(=O)[C@@H]2[C@H]1[C@@]2(F)C(=O)O (racemic) [Comp. 3, (1RS, 2SR, 5SR, 6SR)-2-amino-6-fluoro-4-oxobicyclo[3.1.0]hexane-2,6-dicarboxylic acid] | 
9.18 | N[C@@]1(C(=O)O)CC(=O)[C@@H]2[C@H]1[C@@]2(F)C(=O)O (single isomer, unassigned) [Comp. 4, (+)-(1R*, 2S*, 5S*, 6S*)-2amino-6-fluoro-4-oxobicyclo [3.1.0]hexane-2,6-dicarboxylic acid] | 
6.92 | N[C@H](C(=O)O)[C@H]1C[C@@H]1C(=O)O [L-CCG-I, (2S, 1'S, 2'S)-2-(carboxycyclopropyl)glycine, reference compound] | 
